{"source": "PubChem BioAssay (NCI)", "experiment_in_all_cases": "NCI anticancer screen, dose series, 384-well format", "key": {"786-0 renal": {"test_system": "786-0 renal"}, "A498 renal": {"test_system": "A498 renal"}, "A549 NSCLC": {"test_system": "A549 NSCLC"}, "ACHN renal": {"test_system": "ACHN renal"}, "BT-549 breast": {"test_system": "BT-549 breast"}, "CAKI-1 renal": {"test_system": "CAKI-1 renal"}, "CCRF-CEM leukemia": {"test_system": "CCRF-CEM leukemia"}, "COLO 205 colon": {"test_system": "COLO 205 colon"}, "DU-145 prostate": {"test_system": "DU-145 prostate"}, "HCC-2998 colon": {"test_system": "HCC-2998 colon"}, "HCT-116 colon": {"test_system": "HCT-116 colon"}, "HCT-15 colon": {"test_system": "HCT-15 colon"}, "HL-60(TB) leukemia": {"test_system": "HL-60(TB) leukemia"}, "HOP-62 NSCLC": {"test_system": "HOP-62 NSCLC"}, "HOP-92 NSCLC": {"test_system": "HOP-92 NSCLC"}, "HT29 colon": {"test_system": "HT29 colon"}, "IGROV1 ovarian": {"test_system": "IGROV1 ovarian"}, "K-562 leukemia": {"test_system": "K-562 leukemia"}, "KM12 colon": {"test_system": "KM12 colon"}, "LOX IMVI melanoma": {"test_system": "LOX IMVI melanoma"}, "M14 melanoma": {"test_system": "M14 melanoma"}, "MALME-3M melanoma": {"test_system": "MALME-3M melanoma"}, "MCF7 breast": {"test_system": "MCF7 breast"}, "MDA-MB-231 breast": {"test_system": "MDA-MB-231 breast"}, "MDA-MB-435 melanoma": {"test_system": "MDA-MB-435 melanoma"}, "MDA-MB-468 breast": {"test_system": "MDA-MB-468 breast"}, "MOLT-4 leukemia": {"test_system": "MOLT-4 leukemia"}, "NCI-H226 lung": {"test_system": "NCI-H226 lung"}, "NCI-H23 lung": {"test_system": "NCI-H23 lung"}}, "note": "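At the GI50, growth is halved. At the TGI there is no net growth.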"}
{"smiles": "Cc1c(N(C(=O)c2cc(-c3cc(Cl)ccc3C(=O)N3Cc4ccccc4C[C@H]3CN3CCOCC3)n(C)c2C)c2ccc(O)cc2)cc(C#N)n1C", "values": [{"measurement": "GI50", "setting": "786-0 renal", "value": 6.22, "unit": "µM"}, {"measurement": "TGI", "setting": "786-0 renal", "value": 30, "unit": "µM"}, {"measurement": "GI50", "setting": "A498 renal", "value": 4.79, "unit": "µM"}, {"measurement": "TGI", "setting": "A498 renal", "value": 19, "unit": "µM"}, {"measurement": "GI50", "setting": "A549 NSCLC", "value": 7.07, "unit": "µM"}, {"measurement": "TGI", "setting": "A549 NSCLC", "value": "> 100", "unit": "µM"}, {"measurement": "GI50", "setting": "ACHN renal", "value": 7.31, "unit": "µM"}, {"measurement": "TGI", "setting": "ACHN renal", "value": "> 100", "unit": "µM"}, {"measurement": "GI50", "setting": "BT-549 breast", "value": 12.5, "unit": "µM"}, {"measurement": "TGI", "setting": "BT-549 breast", "value": 30.9, "unit": "µM"}, {"measurement": "GI50", "setting": "CAKI-1 renal", "value": 9.01, "unit": "µM"}, {"measurement": "TGI", "setting": "CAKI-1 renal", "value": 66.1, "unit": "µM"}, {"measurement": "GI50", "setting": "CCRF-CEM leukemia", "value": 1.68, "unit": "µM"}, {"measurement": "TGI", "setting": "CCRF-CEM leukemia", "value": 3.11, "unit": "µM"}, {"measurement": "GI50", "setting": "COLO 205 colon", "value": 25.5, "unit": "µM"}, {"measurement": "TGI", "setting": "COLO 205 colon", "value": "> 100", "unit": "µM"}, {"measurement": "GI50", "setting": "DU-145 prostate", "value": 16.3, "unit": "µM"}, {"measurement": "TGI", "setting": "DU-145 prostate", "value": "> 100", "unit": "µM"}, {"measurement": "GI50", "setting": "HCC-2998 colon", "value": 3.35, "unit": "µM"}, {"measurement": "TGI", "setting": "HCC-2998 colon", "value": 8.64, "unit": "µM"}, {"measurement": "GI50", "setting": "HCT-116 colon", "value": 4.12, "unit": "µM"}, {"measurement": "TGI", "setting": "HCT-116 colon", "value": "> 100", "unit": "µM"}, {"measurement": "GI50", "setting": "HCT-15 colon", "value": 9.36, "unit": "µM"}, {"measurement": "TGI", "setting": "HCT-15 colon", "value": 24.1, "unit": "µM"}, {"measurement": "GI50", "setting": "HL-60(TB) leukemia", "value": 0.0546, "unit": "µM"}, {"measurement": "TGI", "setting": "HL-60(TB) leukemia", "value": 1.19, "unit": "µM"}, {"measurement": "GI50", "setting": "HOP-62 NSCLC", "value": 5.87, "unit": "µM"}, {"measurement": "TGI", "setting": "HOP-62 NSCLC", "value": 29.3, "unit": "µM"}, {"measurement": "GI50", "setting": "HOP-92 NSCLC", "value": 2.58, "unit": "µM"}, {"measurement": "TGI", "setting": "HOP-92 NSCLC", "value": 7.15, "unit": "µM"}, {"measurement": "GI50", "setting": "HT29 colon", "value": 10.9, "unit": "µM"}, {"measurement": "TGI", "setting": "HT29 colon", "value": 43.6, "unit": "µM"}, {"measurement": "GI50", "setting": "IGROV1 ovarian", "value": 13.5, "unit": "µM"}, {"measurement": "TGI", "setting": "IGROV1 ovarian", "value": "> 100", "unit": "µM"}, {"measurement": "GI50", "setting": "K-562 leukemia", "value": 4.85, "unit": "µM"}, {"measurement": "TGI", "setting": "K-562 leukemia", "value": 38.2, "unit": "µM"}, {"measurement": "GI50", "setting": "KM12 colon", "value": 16.1, "unit": "µM"}, {"measurement": "TGI", "setting": "KM12 colon", "value": "> 100", "unit": "µM"}, {"measurement": "GI50", "setting": "LOX IMVI melanoma", "value": 10.4, "unit": "µM"}, {"measurement": "TGI", "setting": "LOX IMVI melanoma", "value": 33, "unit": "µM"}, {"measurement": "GI50", "setting": "M14 melanoma", "value": 12, "unit": "µM"}, {"measurement": "TGI", "setting": "M14 melanoma", "value": 34.1, "unit": "µM"}, {"measurement": "GI50", "setting": "MALME-3M melanoma", "value": 19.2, "unit": "µM"}, {"measurement": "TGI", "setting": "MALME-3M melanoma", "value": 47.2, "unit": "µM"}, {"measurement": "GI50", "setting": "MCF7 breast", "value": 11.4, "unit": "µM"}, {"measurement": "TGI", "setting": "MCF7 breast", "value": "> 100", "unit": "µM"}, {"measurement": "GI50", "setting": "MDA-MB-231 breast", "value": 3.74, "unit": "µM"}, {"measurement": "TGI", "setting": "MDA-MB-231 breast", "value": 14.1, "unit": "µM"}, {"measurement": "GI50", "setting": "MDA-MB-435 melanoma", "value": 5.21, "unit": "µM"}, {"measurement": "TGI", "setting": "MDA-MB-435 melanoma", "value": 19.3, "unit": "µM"}, {"measurement": "GI50", "setting": "MDA-MB-468 breast", "value": 2.84, "unit": "µM"}, {"measurement": "TGI", "setting": "MDA-MB-468 breast", "value": 7.25, "unit": "µM"}, {"measurement": "GI50", "setting": "MOLT-4 leukemia", "value": 1.61, "unit": "µM"}, {"measurement": "TGI", "setting": "MOLT-4 leukemia", "value": 2.97, "unit": "µM"}, {"measurement": "GI50", "setting": "NCI-H226 lung", "value": 9.16, "unit": "µM"}, {"measurement": "TGI", "setting": "NCI-H226 lung", "value": 22.2, "unit": "µM"}, {"measurement": "GI50", "setting": "NCI-H23 lung", "value": 9.38, "unit": "µM"}]}
